Measured values from patent US9550811B2, “Peptide scaffold design” (BIONOR IMMUNO AS, priority 2010, dated 2017).

How the values were obtained:
Assay in all cases: REVEAL binding assay
Settings in all cases: score as percentage of the signal generated by the positive control peptide
HLA-B15 = tested on: HLA-B15
Excerpt: (§5) The REVEAL™ binding assay determined the ability of each candidate peptide to bind to one or more MHC class I alleles and stabilizing the MHC-peptide complex. […] Detection is based on the presence or absence of the native conformation of the MHC-peptide complex. Each peptide is given a score relative to the positive control peptide, which is a known T cell epitope.

HLA-B40 = tested on: HLA-B40
Experimental: (§1) Binding properties to HLA for the ninemers listed in table 6 were tested for the following HLA-classes:
(§2) HLA-A1, HLA-A2, HLA-A3, HLA-A11, HLA-A24, HLA-A29, HLA-B7, HLA-B8, HLA-B14, HLA-B15, HLA-B27, HLA-B35, HLA-B40.
The peptides were synthesized as a Prospector PEPscreen®: Custom Peptide Library. Peptides 8-15 amino acids in length were synthesized in 0.5-2 mg quantities with high average purity. Quality control by MALDI-TOF Mass Spectrometry was carried out on 100% of samples.
The REVEAL™ binding assay determined the ability of each candidate peptide to bind to one or more MHC class I alleles and stabilizing the MHC-peptide complex. By comparing the binding to that of high and intermediate affinity T cell epitopes, the most likely immunogenic peptides in a protein sequence can be identified. Detection is based on the presence or absence of the native conformation of the MHC-peptide complex. Each peptide is given a score relative to the positive control peptide, which is a known T cell epitope. The score of the test peptide is reported quantitatively as a percentage of the signal generated by the positive control peptide, and the peptide is indicated as having a putative pass or fail result. Assay performance is confirmed by including an intermediate control peptide that is known to bind with weaker affinity to the allele under investigation.

HLA-A1 = tested on: HLA-A1
HLA-B7 = HLA-B7 (Homo sapiens, UniProt P01889)
Experimental: as §1, §2
(§3) The peptides were synthesized as a Prospector PEPscreen®: Custom Peptide Library. […] Quality control by MALDI-TOF Mass Spectrometry was carried out on 100% of samples.
(§4) The REVEAL™ binding assay determined the ability of each candidate peptide to bind to one or more MHC class I alleles and stabilizing the MHC-peptide complex. By comparing the binding to that of high and intermediate affinity T cell epitopes, the most likely immunogenic peptides in a protein sequence can be identified. Detection is based on the presence or absence of the native conformation of the MHC-peptide complex. Each peptide is given a score relative to the positive control peptide, which is a known T cell epitope.

HLA-A2 = HLA-A2 (Homo sapiens, UniProt P04439, D140Y/D185E/D98H/E176V/E277Q/G131W/G231S/I119V/I121R/I166T/I218V/N151K/N90K/P208A/P217A/Q86G/Q94H/R138H/R169H)
Experimental: as §1, §2, §3, §4

HLA-B27 = HLA-B27 (Homo sapiens, UniProt P01889, D138H/D201E/E176V/E204Q/G107R/H137Y/K202T/N104T/N87E/Q56L/Q94K/R106L/R155S/R180L/S101D/S121N/S48T/Y140D/Y33H/Y91C)
Experimental: as §1, §2, §3, §4

HLA-A3 = HLA-A3 (Homo sapiens, UniProt P04439)
Experimental: as §1, §2, §3, §4

HLA-A11 = HLA-A11 (Homo sapiens, UniProt P04439, A114D/F33Y/S129P)
Experimental: as §1, §2, §3, §4

HLA-A24 = tested on: HLA-A24
HLA-B14 = tested on: HLA-B14
Excerpt: as §5

HLA-B35 = tested on: HLA-B35
HLA-A29 = tested on: HLA-A29
Excerpt: as §5

HLA-B8 = tested on: HLA-B8

HLA-B7, sequence (P61769 21-119): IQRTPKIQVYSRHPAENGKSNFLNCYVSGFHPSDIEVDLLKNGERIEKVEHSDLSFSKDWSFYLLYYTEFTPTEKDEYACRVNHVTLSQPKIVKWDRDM
HLA-B7, sequence (P01889 25-299): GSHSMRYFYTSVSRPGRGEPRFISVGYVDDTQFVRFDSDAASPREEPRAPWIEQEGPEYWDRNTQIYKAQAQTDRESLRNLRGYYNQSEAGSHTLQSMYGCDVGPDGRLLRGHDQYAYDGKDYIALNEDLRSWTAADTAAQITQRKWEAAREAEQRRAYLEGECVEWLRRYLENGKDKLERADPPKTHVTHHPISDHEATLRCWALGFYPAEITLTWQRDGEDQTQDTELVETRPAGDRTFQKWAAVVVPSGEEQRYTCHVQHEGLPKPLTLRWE
HLA-A3, sequence (P04439 25-299): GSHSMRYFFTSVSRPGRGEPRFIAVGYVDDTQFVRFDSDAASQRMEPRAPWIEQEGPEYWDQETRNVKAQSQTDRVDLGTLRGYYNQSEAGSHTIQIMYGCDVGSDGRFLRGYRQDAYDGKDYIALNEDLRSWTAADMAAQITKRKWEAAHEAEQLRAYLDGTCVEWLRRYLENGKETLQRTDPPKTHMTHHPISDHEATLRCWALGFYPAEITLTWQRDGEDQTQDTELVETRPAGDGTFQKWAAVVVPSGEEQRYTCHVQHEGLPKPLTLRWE
HLA-A3, sequence (P61769 21-119, further chain): as the sequence (P61769 21-119) above

Row | Sequence | REVEAL binding score, HLA-type B15 (HLA-B15) [%] | REVEAL binding score, HLA-type B40 (HLA-B40) [%] | REVEAL binding score, HLA-type A1 (HLA-A1) [%] | REVEAL binding score, HLA-type B7 (HLA-B7) [%] | REVEAL binding score, HLA-type A2 (HLA-A2) [%] | REVEAL binding score, HLA-type B27 (HLA-B27) [%] | REVEAL binding score, HLA-type A3 (HLA-A3) [%] | REVEAL binding score, HLA-type A11 (HLA-A11) [%] | REVEAL binding score, HLA-type A24 (HLA-A24) [%] | REVEAL binding score, HLA-type B14 (HLA-B14) [%] | REVEAL binding score, HLA-type B35 (HLA-B35) [%] | REVEAL binding score, HLA-type A29 (HLA-A29) [%] | REVEAL binding score, HLA-type B8 (HLA-B8) [%]
1 | GYLPAVGAP | 10.50 | 27.82 | 12.04 | 3.10 | 5.87 | 0.73 | 2.90 | 4.25 | 0.35 | 0.11 | 1.84 | 26.03 | 17.38
2 | MGYIPLVGA | 8.85 | 40.78 | 11.34 | 0.80 | 10.71 | 0.83 | 3.40 | 4.79 | 0.35 | 0.73 | 0.85 | 19.54 | 14.88
3 | LGRVIETLT | 16.38 | 62.07 | 16.33 | 2.66 | 5.90 | 2.54 | 7.40 | 20.27 | 0.97 | 0.28 | 3.43 | 12.31 | 14.74
4 | NYATGNLPG | 6.06 | 75.28 | 11.16 | 0.51 | 3.94 | 2.33 | 8.65 | 4.69 | 1.13 | 0.79 | 6.44 | 34.26 | 9.96
5 | NLGKVIDTL | 12.59 | 53.82 | 18.14 | 2.64 | 7.70 | 2.64 | 6.41 | 12.81 | 1.16 | 0.57 | 4.39 | 10.67 | 16.86
6 | VGGVYLLPR | 13.22 | 55.61 | 17.88 | 1.15 | 8.73 | 0.79 | 3.41 | 4.16 | 0.34 | 0.44 | 4.02 | 14.20 | 11.57
7 | TGNIPGSTY | 52.30 | 38.15 | 10.58 | 1.32 | 3.59 | 1.98 | 13.04 | 6.06 | 0.86 | 1.15 | 48.40 | 35.10 | 10.25
